Measured values from patent US20070010518A1, “Method for administering levosimendan” (priority 2005, published 2007).

What was measured:
Format in all cases: in vivo, human
[1] = test system: patients with New York Heart Association functional class II to III heart failure; assay: Plasma natriuretic peptide (NT-proANP, NT-proBNP) measurements in double-blind, placebo-controlled study
Method: (§1) A double-blind, placebo-controlled, parallel group, single center study in patients with New York Heart Association functional class II to III heart failure was conducted. Patients were randomised in 1:1 ratio to receive either levosimendan or placebo. Study drug administration was initiated with a loading dose of 12 μg/kg of levosimendan or placebo delivered over 10 minutes. This was followed by a continuous infusion of 0.1 μg/kg/min for 50 minutes. If the dose was well tolerated the infusion rate was increased to 0.2 μg/kg/min for a further 23 hours. After the study drug was started, the hemodynamic assessments were repeated at 30 minutes, at two and six hours. The non-invasive hemodynamic assessments were repeated at 24-hours. Follow-up visits took place at 2, 3, 5, 7, 9 and 14 days from the beginning of the study. On these visits echocardiographic measurements were performed and blood pressure and heart rate were measured.
Blood samples (4 ml) for natriuretic peptide (NT-proANP, NT-proBNP) measurements were taken into pre-cooled EDTA tubes. Samples were taken at baseline (0-sample) and on the first study day 30 min, 2 h, 6h and 24 h after the start of the infusion and in the mornings of days 2, 3, 5, 7, 9 and 14 after the start of the study drug infusion.

[2] = test system: patients with New York Heart Association functional class II to III heart failure; assay: Doppler echocardiographic hemodynamic measurements in double-blind, placebo-controlled study
Method: as §1
An Acuson Sequoia ultrasound system with 2.5-3.75 MHz probes was used for the Doppler echocardiographic measurements. Blood flow velocity curves were recorded at a sweep speed of 100 mm/s. Left ventricular ejection fraction was assessed by two-dimensional apical two- and four-chamber views with use of modified Simpson rule. Mitral flow velocity was assessed by pulsed wave Doppler from the apical four-chamber view by placing a 3-mm sample volume between the tip of the mitral leaflets in diastole. The following measurements were made over five consecutive cycles: maximal early and maximal late diastolic velocity and their ratio, duration of the late diastolic velocity wave, deceleration time and deceleration rate of early diastolic velocity. Peak velocities were defined as the highest point of the spectrum.

[3] = test system: patients with New York Heart Association functional class II to III heart failure; assay: Invasive hemodynamic assessments in double-blind, placebo-controlled study
Method: as §1

[4] = after start of 24-hour infusion
[5] = after starting the 24-hour infusion
[6] = echocardiography, 24-hour infusion

## C[C@@H]1CC(=O)NN=C1c1ccc(NN=C(C#N)C#N)cc1 [levosimendan, (−)-enantiomer of [[4-(1,4,5,6-tetrahydro-4-methyl-6-oxo-3-pyridazinyl)phenyl]hydrazono]propanedinitrile]
[1]; 24-hour infusion
  Duration of treatment effect on plasma NT-proANP estimated by a linear model: 16 days
  Duration of treatment effect on plasma NT-proBNP estimated by a linear model: 12 days
[1]; [4]
  Day at which plasma NT-proANP level reached its lowest value: 3 days
  Day at which plasma NT-proBNP level reached its lowest value: 2 days
[2]; after levosimendan administration (24-hour infusion)
  Maintenance of beneficial hemodynamic and neurohormonal effects: maintained up to two weeks
[2]; [5]
  Time at which echocardiographically estimated PCWP reached its lowest value: 2 days
  Time of maximal effects on hemodynamic parameters: 1 to 3 days
[2]; [6]
  Linearly estimated duration of an increase in CO: 13 days
  Linearly estimated duration of the decrease in PCWP: 9 days
[2]; end of the 24-hour infusion
  Time at which highest CO value estimated by echocardiography was detected: 24 h
[3]; at six hours, loading dose 12 μg/kg, then infusion 0.1-0.2 μg/kg/min
  Invasively measured cardiac output (CO): 5.4 L/min
[3]; baseline, levosimendan group
  Invasively measured cardiac output (CO): 4.3 L/min
[3]; baseline, levosimendan treatment
  PCWP: 20 mmHg
[3]; in response to levosimendan treatment, loading dose 12 μg/kg, then infusion 0.1-0.2 μg/kg/min
  PCWP: 15 mmHg
